{"source": "patent US20070219180A1", "about": "“Muscle Relaxtion Accelerator and Therapeutic Agent for Muscular Tissue Diseases Such as Muscle Relaxation Failure” (priority 2004, published 2007)", "key": {"white rabbits": {"system": "white rabbits", "test": "Experiment 10: effect of the compound on cardiac rate and PQ interval on the electrocardiogram", "type": "in vivo, rabbit", "conditions": "for Cardiac rate: listed as the test compound; for Cardiac rate relative to before administration (100%) / PQ interval relative to before administration (100%): before administration (defined as 100%)", "method": "In this experiment, the 1-hydrochloride of the compound, 4-[3-(4-benzylpiperidin-1-yl)propionyl]-7-methoxy-2,3,4,5-tetrahydro-1,4-benzothiazepine 1-hydrochloride (hereinafter called the compound) was used as the 1,4-benzothiazepine derivative or pharmaceutically acceptable salt thereof.\nFive white rabbits (weight: 2.7-2.9 kg) were used in this experiment: a rabbit (weight 2.8 kg, Control 1) that was administered control solution, a rabbit (weight 2.7 kg, Test 10) that received the compound at 0.04 mg/kg/min, a rabbit (weight 2.7 kg, Test 11) that received the compound at 0.04 mg/kg/min, a rabbit (weight 2.9 kg, Test 12) that received the compound at 0.4 mg/kg/min, and a rabbit (weight 2.8 kg, Test 13) that received the compound at 0.4 mg/kg/min.\nEach rabbit was anesthetized with a single intravenous injection of 20 mg/kg methohexital sodium under artificial respiration (Type AR1 Narishige Group) using endotracheal intubation. Subsequently, α-chloralose was injected into the ear veins at 90 mg/kg/20 min. A DMSO solution of the compound was prepared by dissolving 100 mg of the compound in 1 ml of dimethylsulfoxide (DMSO), and stored at 4° C.\nIn this experiment, injection catheters for administration of the compound and other drugs were inserted into the right external jugular veins of the rabbits, and microchip catheters (SPC-320, Millar) for blood pressure measurement were inserted via the right common arteries. A 2-lead electrocardiogram was examined, and blood pressure, cardiac rate, and electrocardiogram of the rabbits were monitored for 10 minutes. When the data stabilized, the electrocardiogram, systolic pressure and diastolic pressure of each rabbit were recorded on a personal computer via an A/D converter. The Control rabbit was administered 5% dextrose solution containing 0.1% DMSO as a control solution for 10 minutes at 0.1 ml/min. Test 10 and 11 rabbits were administered 5% dextrose containing the compound at 0.1 ml/min, and then the compound at an infusion rate of 0.04 mg/kg/min. Test 12 and 13 were administered 5% dextrose containing the compound at 0.1 ml/min, and then the compound at an infusion rate of 0.4 mg/kg/min.\nCardiac rate and PQ interval in the Control and Test rabbits were measured before administration of the test solution, and 5 and 10 minutes after administration. The PQ interval, which is the time interval between the beginning of the P-wave and the beginning of next Q wave, reflects the conduction velocity of electrical stimulation from the atrium to the ventricle. The cardiac rates before administration of the test solution were defined as 100%, and data for the cardiac rate after administration of the compound are shown in Table 10."}, "male Wistar rats": {"system": "male Wistar rats", "test": "Experiment 11: protective effect on diastolic dysfunction of the myocardium (compound given before norepinephrine)", "type": "in vivo, rat", "method": "This experiment was performed to examine the protective effect of the compound on left ventricular diastolic dysfunction, and the compound was administered 5 minutes before administration of the norepinephrine solution referred to in Experiment 1, in which a calcium solution and a norepinephrine solution were administered after calcium administration for 20 minutes.\nIn this experiment, the 1,4-benzothiazepine derivative or pharmaceutically acceptable salt thereof was used as the compound.\nEight-week old male Wistar rats weighing 310-320 g were used in the study. The rats were anesthetized with 1,000 mg/kg of urethane and 80 mg/kg of α-chloralose by subperitoneal injection under artificial respiration (SN-480-7, Shinano) using endotracheal intubation. In this experiment, 100 mg of the compound was dissolved in 1 ml of dimethylsulfoxide (DMSO) and the resulting DMSO solution of the compound was stored at 4° C. Norepinephrine solution was prepared by dissolving 1 mg of norepinephrine in 41 μl of distilled water, at an infusion speed of […].\nFirstly, continuous infusion catheters of calcium chloride solution or norepinephrine solution containing calcium chloride were inserted into the right external jugular veins of the rats, microchip catheters (SPC-320, Millar) was inserted into the left ventricles via the right common arteries, and the left ventricular end-diastolic pressure was measured. In addition, test drug infusion catheters were inserted into the right femoral veins.\nA 1-lead electrocardiogram and the left ventricular pressure were recorded simultaneously on a personal computer via an A/D converter. The left ventricular diastolic pressure was determined as the mean of data measured over 20 heart beats every 5 minutes, when the pressure equivalent to the R wave of the electrocardiogram was defined as the left ventricular diastolic pressure. In the preparation step, blood pressure, pulse, and electrocardiogram of the rats were monitored for 15 minutes and allowed to stabilize, and then 5% dextrose solution containing calcium chloride (at a concentration based on the weight of the rat) was infused into the right external jugular vein for 20 minutes at 16.6 μl/min (12.0 mg/kg/min of calcium chloride).\nSecondly, a norepinephrine solution containing calcium chloride without a change in dosage was immediately injected at a rate of 30 μg/kg/min via the right external jugular vein. After the start of administration, calcium chloride and norepinephrine were then continuously injected in the form of a norepinephrine solution containing calcium chloride. With continuous injection of calcium chloride and norepinephrine (in the form of a norepinephrine solution containing calcium chloride) via the right external jugular vein, 0.2 ml of 1% DMSO solution of the solvent used for the test compound was administered over 30 seconds to a rat (weight: 310 g, Control; this animal was not administered the compound) via the right femoral vein, 5 minutes before commencement of injection (intravenous injection) of calcium chloride and norepinephrine (in the form of a norepinephrine solution containing calcium chloride) via the right external jugular vein.\nSimilarly to the Control, with continuous injection of calcium chloride and norepinephrine (in the form of a norepinephrine solution containing calcium chloride) via the right external jugular vein, 0.2 ml of a 1% DMSO solution containing 0.3 mg/kg of the compound was administered over 30 seconds to a rat (weight: 320 g, defined as Test 14) via the right femoral vein, 5 minutes before commencement of injection (intravenous injection) via the right external jugular vein of calcium chloride and norepinephrine. Furthermore, in this experiment, after the test drug was injected over 30 seconds, a 1:10 dilution of the injected test drug was additionally administered at 10 μl/min from commencement of test drug injection to 15 minutes after the start of administration. […]"}, "[1]": {"conditions": "infusion rate 0.04 mg/kg/min, after 5 minutes"}, "[2]": {"conditions": "infusion rate 0.04 mg/kg/min, after 10 minutes"}, "[3]": {"conditions": "infusion rate 0.04 mg/kg/min, before administration"}, "[4]": {"conditions": "infusion rate 0.4 mg/kg/min, after 5 minutes"}, "[5]": {"conditions": "infusion rate 0.4 mg/kg/min, after 10 minutes"}, "[6]": {"conditions": "infusion rate 0.4 mg/kg/min, before administration"}}, "note": "Several values for one entry are separate records, joined by “and”; a condition that tells them apart may be missing. Equal entries are not always repeated.", "data": [{"smiles": "COc1ccc2c(c1)CN(C(=O)CCN1CCC(Cc3ccccc3)CC1)CCS2", "note": "[the compound, 4-[3-(4-benzylpiperidine-1-yl)propionyl]-7-methoxy-2,3,4,5-tetrahydro-1,4-benzothiazepine]", "values": [{"measurement": "Increase of PQ interval compared to before administration", "setting": "white rabbits; 0.4 mg/kg/min, 10 minutes after administration, Test 12 and Test 13 rabbits", "result": "approximately 50%"}, {"measurement": "PQ interval", "setting": "white rabbits; [1]", "result": "73 milliseconds and 66 milliseconds"}, {"measurement": "Cardiac rate", "setting": "white rabbits; [1]", "result": "289 min⁻¹ and 283 min⁻¹"}, {"measurement": "PQ interval", "setting": "white rabbits; [2]", "result": "74 milliseconds and 68 milliseconds"}, {"measurement": "Cardiac rate", "setting": "white rabbits; [2]", "result": "286 min⁻¹ and 281 min⁻¹"}, {"measurement": "PQ interval", "setting": "white rabbits; [3]", "result": "71 milliseconds and 64 milliseconds"}, {"measurement": "Cardiac rate relative to before administration (100%)", "setting": "white rabbits; infusion rate 0.04 mg/kg/min", "result": "(100%)"}, {"measurement": "PQ interval relative to before administration (100%)", "setting": "white rabbits; infusion rate 0.04 mg/kg/min", "result": "(100%)"}, {"measurement": "Cardiac rate", "setting": "white rabbits; [3]", "result": "297 min⁻¹ and 286 min⁻¹"}, {"measurement": "PQ interval", "setting": "white rabbits; [4]", "result": "92 milliseconds and 82 milliseconds"}, {"measurement": "Cardiac rate", "setting": "white rabbits; [4]", "result": "350 min⁻¹ and 311 min⁻¹"}, {"measurement": "PQ interval", "setting": "white rabbits; [5]", "result": "107 milliseconds and 103 milliseconds"}, {"measurement": "Cardiac rate", "setting": "white rabbits; [5]", "result": "157 min⁻¹ and 98 min⁻¹"}, {"measurement": "PQ interval", "setting": "white rabbits; [6]", "result": "69 milliseconds and 68 milliseconds"}, {"measurement": "Cardiac rate relative to before administration (100%)", "setting": "white rabbits; infusion rate 0.4 mg/kg/min", "result": "(100%)"}, {"measurement": "PQ interval relative to before administration (100%)", "setting": "white rabbits; infusion rate 0.4 mg/kg/min", "result": "(100%)"}, {"measurement": "Cardiac rate", "setting": "white rabbits; [6]", "result": "372 min⁻¹ and 327 min⁻¹"}, {"measurement": "left ventricular end-diastolic pressure", "setting": "male Wistar rats; Test 14: 0.3 mg/kg i.v. over 30 s 5 min before norepinephrine, then 0.02 mg/kg/min, 25 minutes before (5 minutes before the start of CaCl2), baseline", "result": 7.2, "unit": "mmHg"}, {"measurement": "left ventricular end-diastolic pressure", "setting": "male Wistar rats; Test 14: 0.3 mg/kg i.v. over 30 s then 0.02 mg/kg/min, 5 minutes after the start of test drug (just before the start of norepinephrine)", "result": 8.0, "unit": "mmHg"}, {"measurement": "left ventricular end-diastolic pressure", "setting": "male Wistar rats; Test 14: 0.3 mg/kg i.v. over 30 s then 0.02 mg/kg/min, 10 minutes after the start of test drug (5 minutes after the start of norepinephrine 30 μg/kg/min)", "result": 14.5, "unit": "mmHg"}, {"measurement": "left ventricular end-diastolic pressure", "setting": "male Wistar rats; Test 14: 0.3 mg/kg i.v. over 30 s then 0.02 mg/kg/min, 10 minutes before (10 minutes after the start of CaCl2), baseline", "result": 7.9, "unit": "mmHg"}, {"measurement": "left ventricular end-diastolic pressure", "setting": "male Wistar rats; Test 14: 0.3 mg/kg i.v. over 30 s then 0.02 mg/kg/min, 15 minutes after the start of test drug (10 minutes after the start of norepinephrine 30 μg/kg/min)", "result": 18.3, "unit": "mmHg"}, {"measurement": "left ventricular end-diastolic pressure", "setting": "male Wistar rats; Test 14: 0.3 mg/kg i.v. over 30 s then 0.02 mg/kg/min, 20 minutes before (just after the start of CaCl2), baseline", "result": 7.7, "unit": "mmHg"}, {"measurement": "left ventricular end-diastolic pressure", "setting": "male Wistar rats; Test 14: 0.3 mg/kg i.v. over 30 s then 0.02 mg/kg/min, just before test drug (20 minutes after the start of CaCl2), baseline", "result": 8.1, "unit": "mmHg"}]}]}
